Measurements reported in PubChem BioAssay AID248 (DTP/NCI, 2004).
“And” between values parts separate entries of the source, which are not always exact repeats. Equal entries are not always repeated. Toxic doses and inconclusive results are not listed. No stated cut-off is given here; in the data, active means T/C of 150% or more; inactive means T/C below 125%.

Test system: L1210 leukemia ip in BDF1 mice, survival T/C
Assay: NCI In Vivo Anticancer Drug Screen. Data for tumor model L1210 Leukemia (intraperitoneal) in B6D2F1 (BDF1) mice
Details: endpoint: mean survival time, higher = longer survival
In short: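 Read-out is survival time, reported as the treated-group measurement over the vehicle-control measurement.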

[1] = dose: 100.0 mg/kg/injection, schedule: Q04DX003 (ip), vehicle: saline
[2] = dose: 200.0 mg/kg/injection, schedule: Q04DX003 (ip), vehicle: saline
[3] = dose: 400.0 mg/kg/injection, schedule: Q04DX003 (ip), vehicle: saline
[4] = dose: 100.0 mg/kg/injection, schedule: Q01DX001 (ip), vehicle: carboxymethylcellulose (CMC)
[5] = dose: 200.0 mg/kg/injection, schedule: Q01DX001 (ip), vehicle: carboxymethylcellulose (CMC)
[6] = dose: 400.0 mg/kg/injection, schedule: Q01DX001 (ip), vehicle: carboxymethylcellulose (CMC)
[7] = dose: 100.0 mg/kg/injection, schedule: Q04DX002 (ip), vehicle: Klucel (hydroxypropylcellulose) (HPC)
[8] = dose: 200.0 mg/kg/injection, schedule: Q04DX002 (ip), vehicle: Klucel (hydroxypropylcellulose) (HPC)
[9] = dose: 400.0 mg/kg/injection, schedule: Q04DX002 (ip), vehicle: Klucel (hydroxypropylcellulose) (HPC)
[10] = dose: 100.0 mg/kg/injection, schedule: Q04DX003 (ip), vehicle: Klucel (hydroxypropylcellulose) (HPC)
[11] = dose: 200.0 mg/kg/injection, schedule: Q04DX003 (ip), vehicle: Klucel (hydroxypropylcellulose) (HPC)
[12] = dose: 400.0 mg/kg/injection, schedule: Q04DX003 (ip), vehicle: Klucel (hydroxypropylcellulose) (HPC)
[13] = dose: 100.0 mg/kg/injection, schedule: Q04DX003 (ip), vehicle: saline with Tween-80
[14] = dose: 200.0 mg/kg/injection, schedule: Q04DX003 (ip), vehicle: saline with Tween-80
[15] = dose: 400.0 mg/kg/injection, schedule: Q04DX003 (ip), vehicle: saline with Tween-80
[16] = dose: 100.0 mg/kg/injection, schedule: Q01DX001 (ip), vehicle: saline
[17] = dose: 200.0 mg/kg/injection, schedule: Q01DX001 (ip), vehicle: saline
[18] = dose: 400.0 mg/kg/injection, schedule: Q01DX001 (ip), vehicle: saline
[19] = dose: 100.0 mg/kg/injection, schedule: Q01DX009 (ip), vehicle: Klucel (hydroxypropylcellulose) (HPC)
[20] = dose: 200.0 mg/kg/injection, schedule: Q01DX009 (ip), vehicle: Klucel (hydroxypropylcellulose) (HPC)
[21] = dose: 400.0 mg/kg/injection, schedule: Q01DX009 (ip), vehicle: Klucel (hydroxypropylcellulose) (HPC)

Measured: T/C

C#CC[N+]12CN3CN(CN(C3)C1)C2
inactive: [1] 101 % of control | [2] 98 % of control | [3] 102 % of control

COc1cccc(C2CCCCC2OS(C)(=O)=O)c1 (stereo not given)
inactive: [4] 97 % of control | [5] 92 % of control | [6] 95 % of control

C[Si](C)(C)Cc1ccccc1F
inactive: dose: 25.6 mg/kg/injection, schedule: Q04DX002 (ip), vehicle: saline with Tween-80 101 % of control | dose: 64.0 mg/kg/injection, schedule: Q04DX002 (ip), vehicle: saline with Tween-80 93 % of control | dose: 160.0 mg/kg/injection, schedule: Q04DX002 (ip), vehicle: saline with Tween-80 104 % of control | dose: 400.0 mg/kg/injection, schedule: Q04DX002 (ip), vehicle: saline with Tween-80 90 % of control

O=C(/C=C/c1ccccc1)N/N=C/c1ccccc1Cl
inactive: dose: 50.0 mg/kg/injection, schedule: Q04DX002 (ip), vehicle: Klucel (hydroxypropylcellulose) (HPC) 108 % of control | [7] 100 % of control and 116 % of control | [8] 111 % of control | [9] 101 % of control and 110 % of control

ClCCN(CCCl)c1ccc(C=Nc2cccc(Cl)c2)cc1
inactive: dose: 50.0 mg/kg/injection, schedule: Q01DX001 (ip), vehicle: carboxymethylcellulose (CMC) 100 % of control | [4] 100 % of control | [5] 105 % of control | [6] 105 % of control

O=[N+]([O-])c1ccc(-c2cccc(Cl)c2)c([N+](=O)[O-])c1
inactive: [4] 91 % of control | [5] 91 % of control | [6] 95 % of control

COC1=CC(=O)C(C2CC(=O)c3c(O)cc(O)cc3O2)=CC1=O (stereo not given)
inactive: dose: 25.0 mg/kg/injection, schedule: Q01DX009 (ip), vehicle: saline with Tween-80 92 % of control | dose: 50.0 mg/kg/injection, schedule: Q01DX009 (ip), vehicle: saline with Tween-80 98 % of control | dose: 100.0 mg/kg/injection, schedule: Q01DX009 (ip), vehicle: saline with Tween-80 103 % of control

COc1cc(C=Nc2cc(Cl)c(Cl)c(Cl)c2)ccc1N(CCCl)CCCl
inactive: dose: 15.0 mg/kg/injection, schedule: Q01DX001 (ip), vehicle: carboxymethylcellulose (CMC) 123 % of control | dose: 30.0 mg/kg/injection, schedule: Q01DX001 (ip), vehicle: carboxymethylcellulose (CMC) 121 % of control

Nc1c(Cl)c(Cl)c2c(c1Cl)C(=O)c1cc(Cl)ccc1-2
inactive: [4] 97 % of control | [5] 108 % of control | [6] 105 % of control

Clc1ccc(N2CCN(c3ccc(Cl)cc3)CC2)cc1
inactive: [10] 88 % of control | [11] 101 % of control | [12] 87 % of control

CCCCCCCS(=O)(=O)c1nc2ccccc2[nH]1
inactive: [7] 95 % of control | [8] 101 % of control | [9] 104 % of control

N#CCCN(C(=O)Nc1cc(C(F)(F)F)ccc1Cl)C1CCCCC1
inactive: [7] 96 % of control | [8] 96 % of control | [9] 105 % of control

CC(C)CCC(C)O[Si](C)c1ccccc1 (stereo not given)
inactive: [13] 97 % of control | [14] 99 % of control | [15] 101 % of control

CC(C)=NN
inactive: [16] 105 % of control | [17] 98 % of control | [18] 100 % of control

COC1OC(COC(C)=O)C(N(C)C(C)=O)C1OC(C)=O (stereo not given)
inactive: [16] 96 % of control | [17] 90 % of control | [18] 94 % of control

O=P(NCCCO)(Oc1ccccc1)N(CCCl)CCCl (stereo not given)
inactive: dose: 125.0 mg/kg/injection, schedule: Q01DX Z (ip), vehicle: saline 95 % of control | dose: 250.0 mg/kg/injection, schedule: Q01DX Z (ip), vehicle: saline 102 % of control | dose: 500.0 mg/kg/injection, schedule: Q01DX Z (ip), vehicle: saline 102 % of control

Cc1ccc(NC(=O)Nc2ccccc2C(N)=O)cc1
inactive: dose: 100.0 mg/kg/injection, schedule: Q04DX003 (ip), vehicle: saline sonified 92 % of control | dose: 200.0 mg/kg/injection, schedule: Q04DX003 (ip), vehicle: saline sonified 92 % of control | dose: 400.0 mg/kg/injection, schedule: Q04DX003 (ip), vehicle: saline sonified 89 % of control

ClC(Cl)=C1C(Cl)=C(Cl)C(Cl)=C1Cl
inactive: dose: 50.0 mg/kg/injection, schedule: Q01DX009 (ip), vehicle: Klucel (hydroxypropylcellulose) (HPC) 97 % of control | dose: 50.0 mg/kg/injection, schedule: Q04DX003 (ip), vehicle: Klucel (hydroxypropylcellulose) (HPC) 96 % of control | [19] 100 % of control | [10] 96 % of control | [20] 94 % of control | [11] 93 % of control

CN=C(N/N=C(C)\C=N\NC(=NC)N(C)C)N(C)C
inactive: dose: 15.0 mg/kg/injection, schedule: Q01DX Z (ip), vehicle: saline 90 % of control | dose: 30.0 mg/kg/injection, schedule: Q01DX Z (ip), vehicle: saline 106 % of control | dose: 60.0 mg/kg/injection, schedule: Q01DX Z (ip), vehicle: saline 95 % of control and 98 % of control | dose: 120.0 mg/kg/injection, schedule: Q01DX Z (ip), vehicle: saline 97 % of control and 101 % of control | dose: 120.0 mg/kg/injection, schedule: Q01DX Z (oral), vehicle: saline 96 % of control | dose: 240.0 mg/kg/injection, schedule: Q01DX Z (ip), vehicle: saline 95 % of control | dose: 240.0 mg/kg/injection, schedule: Q01DX Z (oral), vehicle: saline 91 % of control | dose: 960.0 mg/kg/injection, schedule: Q01DX Z (oral), vehicle: saline 94 % of control

CC1=CC(C)(C)NC(=S)N1
inactive: [19] 97 % of control | [1] 113 % of control | [20] 101 % of control | [2] 106 % of control | [21] 98 % of control | [3] 107 % of control

OCC1OC(n2cnc3cncnc32)CC1O (stereo not given)
inactive: [16] 103 % of control | [17] 97 % of control | [18] 107 % of control

NC(=O)Cn1cnc2cncnc21
inactive: [13] 103 % of control | [14] 111 % of control | [15] 99 % of control

Cc1cc(Br)ccc1NC(=O)/C=C/C(=O)O
inactive: [7] 114 % of control | [8] 95 % of control | [9] 100 % of control

O=C1c2ccccc2C(C(O)(C(F)(F)F)C(F)(F)F)c2ccccc21
inactive: [13] 92 % of control | [14] 97 % of control

CON(C)S(=O)(=O)c1ccc([N+](=O)[O-])cc1
inactive: dose: 100.0 mg/kg/injection, schedule: Q01DX001 (ip), vehicle: Klucel (hydroxypropylcellulose) (HPC) 102 % of control | dose: 200.0 mg/kg/injection, schedule: Q01DX001 (ip), vehicle: Klucel (hydroxypropylcellulose) (HPC) 98 % of control

CC(=O)Nc1ccc2c(c1)/C(=N/O)c1ccccc1-2
inactive: [1] 97 % of control | [2] 89 % of control | [3] 94 % of control

CCC(=O)Nc1ccccc1
inactive: [19] 101 % of control | [10] 100 % of control | [20] 95 % of control | [11] 104 % of control | [21] 108 % of control | [12] 114 % of control
